In article PMC9981942, “Pharmacokinetics and tissue distribution of Ramulus Mori (Sangzhi) alkaloids in rats and its effects on liver enzyme activity” (Frontiers in Pharmacology, 2023):
Read-outs that look alike come from different tables or passages of the source.

What was measured:
[1] = tested on: CYP450s in RLMs (other isoenzymes); experiment: Effect on activity of rat liver microsome isoenzymes other than CYP2C11; conditions: SZ-A 8.899 μg/mL, DNJ 20 μM, FA 5 μM, DAB 8 μM
[2] = Tissue distribution after single oral SZ-A (20 mg/kg) in ICR mice; format: in vivo
Description: (§1) Twenty SD rats were randomly classified into four groups corresponding to four-time points (5 and 30 min, 4 and 12 h) (n = 20; 5 animals per time point) that received SZ-A solution (40 mg/kg) via oral administration. After the completion of dose administration, plasma and tissue samples (derived from the heart, liver, spleen, lung, kidney, aortic blood vessels, brown adipose tissue, subcutaneous adipose tissue, abdominal adipose tissue, muscle (thigh skeletal muscle), pancreas, and brain) were collected at predetermined time points. Twenty-eight ICR mice were randomly classified into four groups (n = 7 per group) corresponding to four-time points (5 and 30 min, 4 and 12 h) that received SZ-A solution (20 mg/kg) via oral administration. After the completion of dose administration, tissue samples (derived from the heart, liver, spleen, lung, kidney, aortic blood vessels, brown adipose tissue, abdominal adipose tissue, muscle (thigh skeletal muscle), pancreas, and brain) were collected at predetermined time points.
(§2) Collected tissue samples were washed with normal saline. The surface moisture was removed by blotting gently with filter paper, and the weight was recorded. After adding an appropriate amount of normal saline, these tissue samples were ground into homogenates using a cryogenic grinder (JX-CL, Shanghai Jingxin, Shanghai, China). The obtained homogenates were stored at −80°C until LC-MS/MS analysis.

major CYP450s in HLMs = experiment: Effect on activity of the major CYP450s in human liver microsomes (all isoforms together); conditions: final concentration SZ-A 8.899 μg/mL (equivalent to DNJ 20 μM), FA 5 μM, DAB 8 μM
[3] = Tissue distribution after single oral SZ-A (40 mg/kg) in SD rats, plasma and 12 tissues; format: in vivo; conditions: for half-life / AUC(0-t) / Tmax / Cmax: rat; for AUC(0-t): n=5, read-out: AUC(0-t)
Description: as §1, §2
(§3) Primary pharmacokinetic parameters, including Cmax, Tmax, area under the plasma concentration-time curve (AUC), t1/2, clearance rate, and the apparent volume of distribution, were calculated using DAS 3.2.8 (Bio Guider Co., Shanghai, China).

[4] = Pharmacokinetic study: plasma levels after oral SZ-A in SD rats (LC-MS/MS, DAS 3.2.8); format: in vivo; conditions: for Tmax / AUC(0-inf) / AUC(0-t) / Cmax / half-life / MRT last / MRT inf: both sexes, rat; for Tmax: SD, po; for Tmax / AUC(0-inf) / AUC(0-t) / Cmax / half-life / MRT last / MRT inf / CLz / VRT(0-t) / VRT(0-∞) / Vz: plasma; for AUC(0-inf) / AUC(0-t) / Cmax / half-life / CLz / VRT(0-t) / VRT(0-∞) / Vz: n=8; for MRT last: n=8, read-out: MRT(0-t); for MRT inf: n=8, read-out: MRT(0-∞)
Description: Twenty-four SD rats were fasted for 12 h (free access to water) and randomly classified into three groups (n = 8; half male and female) that received different doses of SZ-A solution (25, 50, and 200 mg/kg) via oral administration. After completion of dose administration, blood samples (0.3 mL) were collected through an indwelling catheter from the jugular vein at predetermined time points (5, 15, 30, and 45 min, 1, 2, 4, 8, and 24 h). The blood was centrifuged at 5,000 rpm for 10 min to separate the plasma. All plasma samples were stored frozen at −80°C until liquid chromatography coupled to tandem mass spectrometry (LC-MS/MS) analysis (AB SCIEX Triple Quad™ 4,500 mass spectrometer, Applied Biosystems Inc., United States).
as §3

[5] = Sprague-Dawley, muscle (thigh skeletal muscle), Muscle, n=5
[6] = Subcutaneous adipose tissue, n=5

OC[C@H]1NC[C@H](O)[C@@H](O)[C@@H]1O [DNJ, 1-deoxynojirimycin]
effect on other isoenzymes in RLMs [1]: no obvious effect
distribution in aortic vessels compared with other tissues [2]: lower than that in other tissues
tissues with the highest concentrations [2]: kidney, followed by the liver
effect on the major CYP450s in HLMs, either inhibition or activation (major CYP450s in HLMs): no significant effect
peak time in the brain [3]: 4 h
tissues with the highest concentrations [3]: kidney, followed by the liver, aortic vessels, and brown adipose tissue
CLz ([3]; Plasma, n=5): 35.7 ± 5.17 mL/min/kg
Vz ([3]; Plasma, n=5): 1.59 ± 0.29 L/kg
half-life ([3]; Sprague-Dawley, Brown adipose tissue, n=5): 26.4 ± 13.2 min
AUC(0-t) ([3]; Sprague-Dawley, Brown adipose tissue): 3750 ± 995 ng·h/mL
Tmax ([3]; Sprague-Dawley, Brown adipose tissue, n=5, read-out: Tmax): 30 min
Cmax ([3]; Sprague-Dawley, Kidney, n=5): 68200 ± 12400 ng/mL
half-life ([3]; Sprague-Dawley, Kidney, n=5): 148 ± 30.6 min
AUC(0-t) ([3]; Sprague-Dawley, Kidney): 174000 ± 37100 ng·h/mL
Tmax ([3]; Sprague-Dawley, Kidney, n=5, read-out: Tmax): 30 min
Cmax ([3]; Sprague-Dawley, Liver, n=5): 3300 ± 893 ng/mL
half-life ([3]; Sprague-Dawley, Liver, n=5): 33 ± 0.6 min
AUC(0-t) ([3]; Sprague-Dawley, Liver): 7560 ± 1840 ng·h/mL
Tmax ([3]; Sprague-Dawley, Liver, n=5, read-out: Tmax): 25.2 ± 11.4 min
Cmax ([3]; Sprague-Dawley, Lung, n=5): 806 ± 23.5 ng/mL
half-life ([3]; Sprague-Dawley, Lung, n=5): 28.2 ± 14.4 min
Tmax ([3]; Sprague-Dawley, Lung, n=5, read-out: Tmax): 13.2 ± 14.4 min
Cmax ([3]; Sprague-Dawley, Pancreas, n=5): 386 ± 124 ng/mL
half-life ([3]; Sprague-Dawley, Pancreas, n=5): 130 ± 205 min
AUC(0-t) ([3]; Sprague-Dawley, Pancreas): 2190 ± 614 ng·h/mL
Tmax ([3]; Sprague-Dawley, Pancreas, n=5, read-out: Tmax): 30 min
Cmax ([3]; Sprague-Dawley, Plasma, n=5): 5830 ± 843 ng/mL
half-life ([3]; Sprague-Dawley, Plasma, n=5): 31.2 ± 1.2 min
AUC(0-t) ([3]; Sprague-Dawley, Plasma): 13700 ± 1970 ng·h/mL
Tmax ([3]; Sprague-Dawley, Plasma, n=5, read-out: Tmax): 30 min
Cmax [3, 5]: 725 ± 279 ng/mL
half-life [3, 5]: 45.6 ± 18 min
AUC(0-t) ([3]; Sprague-Dawley, muscle (thigh skeletal muscle), Muscle): 2640 ± 544 ng·h/mL
Tmax ([3]; Sprague-Dawley, muscle (thigh skeletal muscle), Muscle, n=5, read-out: Tmax): 19.8 ± 13.8 min
Cmax ([3]; Abdominal adipose tissue, n=5): 1270 ± 428 ng/mL
half-life ([3]; Abdominal adipose tissue, n=5): 102 ± 135 min
AUC(0-t) ([3]; Abdominal adipose tissue): 3730 ± 1010 ng·h/mL
Tmax ([3]; Abdominal adipose tissue, n=5, read-out: Tmax): 25.2 ± 11.4 min
Cmax ([3]; Aortic blood vessels, n=5): 4360 ± 2870 ng/mL
half-life ([3]; Aortic blood vessels, n=5): 36 ± 6.6 min
AUC(0-t) ([3]; Aortic blood vessels): 6230 ± 1790 ng·h/mL
Tmax ([3]; Aortic blood vessels, n=5, read-out: Tmax): 4.8 min
Cmax ([3]; Brain, n=5): 242 ± 50.3 ng/mL
half-life ([3]; Brain, n=5): 482 ± 430 min
AUC(0-t) ([3]; Brain): 2060 ± 562 ng·h/mL
Tmax ([3]; Brain, n=5, read-out: Tmax): 151 ± 122 min
Cmax ([3]; Brown adipose tissue, n=5): 1420 ± 513 ng/mL
Cmax ([3]; Heart, n=5): 588 ± 140 ng/mL
half-life ([3]; Heart, n=5): 31.8 ± 11.4 min
AUC(0-t) ([3]; Heart): 1340 ± 373 ng·h/mL
Tmax ([3]; Heart, n=5, read-out: Tmax): 10.2 ± 11.4 min
AUC(0-t) ([3]; Lung): 1220 ± 501 ng·h/mL
Cmax ([3]; Spleen, n=5): 660 ± 225 ng/mL
half-life ([3]; Spleen, n=5): 37.2 ± 1.8 min
AUC(0-t) ([3]; Spleen): 1880 ± 845 ng·h/mL
Tmax ([3]; Spleen, n=5, read-out: Tmax): 30 min
Cmax [3, 6]: 577 ± 163 ng/mL
half-life [3, 6]: 37.8 min
AUC(0-t) ([3]; Subcutaneous adipose tissue): 1210 ± 304 ng·h/mL
Tmax ([3]; Subcutaneous adipose tissue, n=5, read-out: Tmax): 30 min
Tmax ([3]; heart, aortic vessels, read-out: time of peak concentration in heart and aortic vessels (converted)): 5 min
Tmax ([3]; other tissues (not named), tissues not named separately for that alkaloid, read-out: time of peak concentration in other tissues (converted)): 30 min
accumulation in tissues ([3]; up to 12 h): no long-term accumulation
Tmax ([4]; 25 mg/kg, oral SZ-A 25 mg/kg, n=8, read-out: Tmax): 24.6 ± 13.8 min
Tmax ([4]; 50 mg/kg, oral SZ-A 50 mg/kg, n=8, read-out: Tmax): 37.8 ± 19.8 min
Tmax ([4]; 200 mg/kg, oral SZ-A 200 mg/kg, n=8, read-out: Tmax): 46.8 ± 15 min
Tmax ([4]; 200 mg/kg, oral SZ-A 25, 50 and 200 mg/kg, read-out: time to maximum plasma concentration (Tmax), all dose groups): ≤ 52.8 min
AUC(0-inf) ([4]; oral SZ-A 25 mg/kg): 7160 ± 1650 ng·h/mL
AUC(0-t) ([4]; oral SZ-A 25 mg/kg): 7160 ± 1650 ng·h/mL
Cmax ([4]; oral SZ-A 25 mg/kg): 4950 ± 978 ng/mL
half-life ([4]; oral SZ-A 25 mg/kg): 61.2 ± 16.2 min
MRT last ([4]; oral SZ-A 25 mg/kg): 76.2 ± 12 min
MRT inf ([4]; oral SZ-A 25 mg/kg): 76.2 ± 12 min
AUC(0-inf) ([4]; oral SZ-A 50 mg/kg): 12600 ± 3470 ng·h/mL
AUC(0-t) ([4]; oral SZ-A 50 mg/kg): 12600 ± 3470 ng·h/mL
Cmax ([4]; oral SZ-A 50 mg/kg): 7080 ± 1640 ng/mL
half-life ([4]; oral SZ-A 50 mg/kg): 64.2 ± 2.4 min
MRT last ([4]; oral SZ-A 50 mg/kg): 90.6 ± 25.2 min
MRT inf ([4]; oral SZ-A 50 mg/kg): 90.6 ± 25.2 min
AUC(0-inf) ([4]; oral SZ-A 200 mg/kg): 38500 ± 18000 ng·h/mL
AUC(0-t) ([4]; oral SZ-A 200 mg/kg): 38300 ± 18000 ng·h/mL
Cmax ([4]; oral SZ-A 200 mg/kg): 19400 ± 10800 ng/mL
half-life ([4]; oral SZ-A 200 mg/kg): 195 ± 252 min
MRT last ([4]; oral SZ-A 200 mg/kg): 107 ± 18 min
MRT inf ([4]; oral SZ-A 200 mg/kg): 121 ± 35.4 min
differences in t1/2 and CLz between the three doses ([4]; oral SZ-A 25, 50, 200 mg/kg): no significant differences
CLz ([4]; oral SZ-A 25 mg/kg): 41.7 ± 11.2 mL/min/kg
VRT(0-t) ([4]; oral SZ-A 25 mg/kg): 1.15±0.57 h^2
VRT(0-∞) ([4]; oral SZ-A 25 mg/kg): 1.15±0.57 h^2
Vz ([4]; oral SZ-A 25 mg/kg): 3.65 ± 1.45 L/kg
CLz ([4]; oral SZ-A 50 mg/kg): 48 ± 12.7 mL/min/kg
VRT(0-t) ([4]; oral SZ-A 50 mg/kg): 2.02±1.71 h^2
VRT(0-∞) ([4]; oral SZ-A 50 mg/kg): 2.02±1.71 h^2
Vz ([4]; oral SZ-A 50 mg/kg): 4.47 ± 1.30 L/kg
CLz ([4]; oral SZ-A 200 mg/kg): 74.5 ± 44.2 mL/min/kg
VRT(0-t) ([4]; oral SZ-A 200 mg/kg): 6.42±4.65 h^2
VRT(0-∞) ([4]; oral SZ-A 200 mg/kg): 16.10±21.66 h^2
Vz ([4]; oral SZ-A 200 mg/kg): 17.77 ± 20.83 L/kg
